# Tests used:
# APP holoprotein = assay: Cell-associated APP holoprotein in cultured astrocytes (Western blot); assay type: cell-based, rat; design: basal APPh levels (compound by itself): unit of the concentration uncertain
# Procedure: (§1) Astrocytes are isolated from cortices from postnatal rats by methods standard in the art. In brief, dissected cortices are dissociated by trypsinization and trituration through a flame-polished Pasteur pipette. Cells are plated onto poly-L-lysine coated 35- or 100 mm culture dishes at densities of about 10-25 cells/mm^2. The initial culture media, minimal essential medium (MEM, Gibco) containing 10% horse serum (BioWhittaker), are aspirated after 2-5 h after plating to remove unattached cells and debris, and replaced with MEM containing 7.5% fetal bovine serum (FBS, BioWhittaker). Half the media is replaced with MEM/7.5% FBS twice weekly. Cells are kept at 37° C. in a humidified 5% CO2/95% air incubator. Media are changed twice weekly. […] Pharmacological manipulations are performed in serum-free media on 7-14 DIV confluent astrocytes.
# To detect cell-associated proteins (APP or GFAP), astrocytes from 35 mm dishes are scraped into lysis buffer (60 mm Tris/HCl, 4% SDS, 20% glycerol, 1 mm dithiothreitol), ultrasonicated and boiled for […]. The total amount of cell protein per dish, estimated using the bicinchoninic acid assay, is not altered by pharmacological treatments. Bromphenol blue (0.1%) is added to each sample and equal amounts of protein ([…]) are loaded on 10% SDS polyacrylamide gels.
# The amount of media or cell protein loaded for sodium dodecyl sulfate-polyacrylamide gel electrophoresis (10-20% SDS PAGE; Bio-Rad) is normalized for the amount of protein per sample. Proteins (equivalent to 100 μg cell protein/lane) are separated by electrophoresis, electroblotted onto polyvinylidene difluoride membranes (Immobilon-P, Millipore) and blocked in Tris-buffered saline with 0.15% Tween 20 (TEST) containing 5% powdered milk for 30 min. After 2×10 mm rinses in TBST, the membranes are incubated in TEST containing an appropriate antibody. Monoclonal antibodies 22C11 and GFAP (both from Boehringer Mannheim) are used to detect the N-terminus of APP and glial fibrillary acidic protein respectively; antisera R37 and R98 (gifts of Dr. F. Kametani, Tokyo Institute of Psychiatry) are used to detected the C-terminus and KPI motifs of APP respectively; antiserum C8 (gift of Dr. D. Selkoe, Women's Hospital, Harvard Medical School, Cambridge, Mass.) is used to detect the C-terminus of APP.
# After an overnight incubation, membranes are rinsed in TBST then treated for 1 h with a peroxidase-linked secondary antibody. After several rinses in TEST, protein bands are visualized on Kodak X-AR films by an enhanced chemiluminescence method (Amersham). Optical densities of the protein bands are quantitated by laser scanning densitometry (LICE, Bromma, Sweden), and normalized to the densities of those bands generated under control conditions.
# Measurements of cellular and secreted proteins, or of mRNA in treatment groups are normalized against those of control groups which are prepared in parallel and loaded onto the same blot. Analysis of variance (ANOVA) and t-tests are used to evaluate differences between groups (significance level, p=0.05), using drug treatments as the independent variable.
# cAMP = assay: PGE2-induced cAMP increases in 10-day old rat cortical neurons; assay type: cell-based; design: effect on basal cAMP levels: unit of the concentration uncertain; settings: for effect on basal cAMP levels: no PGE2, cortical neurons; for effect on PGE2-stimulated cAMP levels: cortical neurons
# Procedure: FIG. 5. Effect of Cannabinoids on Prostaglandin E2-Induced cAMP Increases in 10-Day Old Rat Cortical Neurons.
# Levels of cyclic AMP are measured with an [8-^3H]-cAMP assay kit (Amersham TRK 432) in astrocytes grown on 35 mm dishes. In brief, after aspirating the medium and rinsing twice with 1 ml ice cold PBS, the cells are scraped in 0.8 mL ice cold ethanol and sonicated. The cell suspension is incubated for […] at room temperature, centrifuged and the supernatant is dried in a rotary evaporator. After resuspension in 120 μL Tris/EDTA buffer, two duplicate samples of 50 μl each are mixed with the binding protein, [8-^3H] adenosine 3′,5′-cyclic phosphate tracer and incubated at 2-4° C. for 2 h. A charcoal suspension (100 μL) is added to the samples before centrifugation and 200 μL of the supernatant is removed for scintillation counting. The amount of cyclic AMP (pmol/mg protein) is estimated by comparing to known standards, and normalized to the amounts of whole cell protein as determined by the bicinchoninic acid assay (Sigma).
# Referring now to FIG. 5, cell cultures of 10-day old cortical neurons are used to assess the affect of anandamide (50 M), methanandamide (10 M), and 2-AG (50 M) on PGE2-stimulated cAMP levels. PGE2 (50 M) is found to elevate cAMP levels about 1.6-fold over basal (control).
# APP mRNA = APP mRNA levels in cultured astrocytes (Northern blot); assay type: cell-based, rat; settings: 1, 10 or 100 μM, 24 h
# Procedure: as §1
# Total RNA from astrocytes grown on 100 mm dishes is extracted by the acid guanidium thiocyanate-phenol chloroform method. […] The levels of APP mRNA are normalized to the amounts of G3PDH mRNA and expressed as a ratio to the levels of untreated, control cells.
# Confluent monolayers of astrocytes prepared according to Example 8.1 are treated with serum-free media containing 50, 100, or 250 μM 8Br-cAMP for varying durations (1 h, 6 h, 12 h, or 24 h). Levels of cAMP in astrocytes are measured with a [8-^3H]-cAMP assay kit (Amersham TRK 432).
# soluble APP (APPs) = assay: Secreted soluble APP in astrocyte culture media (Western blot); assay type: cell-based, rat; settings: astrocytes
# Procedure: as §1
# To detect secreted APP, culture media is collected after drug treatments and phenylmethylsulfonyl fluoride is added to a final concentration of 2 mM. The media samples are then applied to Sephadex PD-b desalting columns (Pharmacia) and eluted with distilled water. […]
# The amount of media or cell protein loaded for sodium dodecyl sulfate-polyacrylamide gel electrophoresis (10-20% SDS PAGE; Bio-Rad) is normalized for the amount of protein per sample. […] Monoclonal antibodies 22C11 and GFAP (both from Boehringer Mannheim) are used to detect the N-terminus of APP and glial fibrillary acidic protein respectively; antisera R37 and R98 (gifts of Dr. F. Kametani, Tokyo Institute of Psychiatry) are used to detected the C-terminus and KPI motifs of APP respectively; antiserum C8 (gift of Dr. D. Selkoe, Women's Hospital, Harvard Medical School, Cambridge, Mass.) is used to detect the C-terminus of APP.
# After an overnight incubation, membranes are rinsed in TBST then treated for 1 h with a peroxidase-linked secondary antibody. […] Optical densities of the protein bands are quantitated by laser scanning densitometry (LICE, Bromma, Sweden), and normalized to the densities of those bands generated under control conditions. […]
# Abeta = assay: Total Abeta media concentration in CHO cells transfected with human APP gene construct; assay type: cell-based, Chinese Hamster; design: unit of the concentration uncertain
# Description: FIG. 3. Effect of Varying Concentrations of Resveratrol on Total Abeta Media Concentration in CHO Cells Transfected with Human APP Gene Construct at Four Hours.
smiles,measurement,setting,value
"CCCCC/C=C\C/C=C\C/C=C\C/C=C\CCCC(=O)N[C@H](C)CO [Methanandamide, methanandamide]",effect on PGE2-stimulated APPh levels,"APP holoprotein; 10 M methanandamide compared with 50 μM anandamide, cultured astrocytes",more efficacious than anandamide
same,effect on basal cAMP levels,cAMP; 10 (unit uncertain),no effect on basal levels
same,effect on PGE2-stimulated cAMP levels,cAMP; 10 M with PGE2 50 M,inhibit the PGE2-induced increase in cAMP levels
"CCCCC[C@H](O)/C=C/[C@H]1[C@H](O)CC(=O)[C@@H]1C/C=C\CCCC(=O)O [PGE2, prostaglandin E2]",amounts of astrocytic APP mRNA (4.5 kb) relative to untreated cells,APP mRNA,significantly increases
same,increase in APPh levels compared to controls,"APP holoprotein; 50 μM prostaglandin E2 alone, cultured astrocytes, two experiments",~75%
same,increase in APPh levels,"APP holoprotein; PGE2 alone, cultured astrocytes (FIG. 4)",three-fold
same,APP secreted in the media (110-130 kD),"soluble APP (APPs); 1, 10 or 100 μM, 24 h",also increased
same,cAMP levels over basal (control),"cAMP; PGE2 50 M alone, 10-day old cortical neurons",about 1.6 fold
Cc1c(C(=O)c2cccc3ccccc23)c2cccc3c2n1[C@H](CN1CCOCC1)CO3 [WIN55212-2],effect on APPh levels in the absence of PGE2,"APP holoprotein; 100 µM, cultured astrocytes",no statistically significant effect
same,increase in APPh levels with PGE2 stimulation,"APP holoprotein; WIN55212-2 100 M added to PGE2, cultured astrocytes",limited to two-fold
CCCCC/C=C\C/C=C\C/C=C\C/C=C\CCCC(=O)NCCO [anandamide],increase in APPh levels over control in presence of PGE2,"APP holoprotein; 50 μM anandamide with 50 μM prostaglandin E2, cultured astrocytes",about 55%
same,basal APPh levels (compound by itself),"APP holoprotein; 50 µM, without PGE2, cultured astrocytes",reduce APPh levels below control values
same,effect on PGE2-stimulated cAMP levels,cAMP; 50 µM with PGE2 50 M,suppress the PGE2-induced stimulation
same,effect on basal cAMP levels,cAMP; 50 (unit uncertain),no effect on basal levels
Oc1ccc(C=Cc2cc(O)cc(O)c2)cc1 [resveratrol],decrease in APP holoprotein,"APP holoprotein; 10 μM (so in the source) and intermediate concentrations, one hour, astrocytes, p<0.05",significant decrease
same,levels of cellular amyloidogenic APP holoprotein,"APP holoprotein; 10 μM and higher, one hour, astrocytes, p<0.05",decreased to about half
same,stimulation of APPs,"soluble APP (APPs); 10 nM and intermediate concentrations, one hour",Significant stimulation
same,formation of soluble APP (APPs) over control,"soluble APP (APPs); 10 μM and higher, one hour, average of four experiments, p<0.05",about two-fold over control
same,Abeta levels in the media,"Abeta; 100 (unit uncertain), four-hour treatment",decrease to about half
same,Abeta levels in the media,"Abeta; lower concentrations (0.1, 1.0, 10 (unit uncertain)), four hours",not to differ from control

# — US20020173549A1, “Compositions and methods for treatment of mild cognitive impairment” (priority 2000, published 2002)
